Counter-ions that a name gives are not always drawn.
Columns and labels:
BT-549 cells = assay: Cell-based assay: anti-proliferative activity, Cell Counting Kit-8, 72 hours (BT-549); settings: Homo sapiens, BT-549, 72 h, BT549 cells, MELK-expressing; Cell Counting Kit-8 at 72 hours
Experimental: To evaluate the expression status of MELK in several cell lines, western blot analysis was performed using crude cell lysate collected from those cells. Anti-MELK antibody (clone 31, BD Biosciences) was used to visualize the expression.
Active candidate inhibitors against MELK were evaluated for their target-specific cytotoxicity using T47D, A549, BT-549, and HT-1197 cells was used for negative control. 100 micro-L of cell suspension was seeded onto 96-well microtiter plate (ViewPlate-96FTC, PerkinElmer). The initial cell concentration of T47D, A549, BT-549, and HT-1197 were 3,000 cells/well, 2,000 cells/well and 2,500 cells/well, respectively. Cellular growth was determined using Cell Counting Kit-8 (DOJINDO) at 72 hours after the exposure of the candidate inhibitors. […] Accurate IC50 values were calculated as described previously.

MELK = MELK (Homo sapiens, UniProt Q14680); assay: Kinase assay: MELK activity, phosphorylation of FITC-labeled histone H3 peptide measured by IMAP fluorescence polarization; format: biochemical; settings: 50 micro-M ATP, FITC-labeled histone H3 peptide substrate, IMAP fluorescence polarization; read-out: IC50 (μM) (kinase assay)
Procedure, shortened: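 Polarization of fluorescence served as the signal for MELK turnover of FITC-conjugated histone H3 peptide. Binding solution quenched each reaction, and plates stood 0.5 hour at room temperature before reading.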

HT-1197 cells = assay: Cell-based assay: anti-proliferative activity, Cell Counting Kit-8, 72 hours (HT-1197, negative control without MELK expression); settings: Homo sapiens, HT1197, 72 h, HT1197 cells, no MELK expression (negative control); Cell Counting Kit-8 at 72 hours
Procedure, shortened: (§1)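 Target-specific cytotoxicity: seeded cells treated with MELK inhibitor candidates for 72 h, proliferation quantified via CCK-8, IC50 fitted.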

T47D cells = assay: Cell-based assay: anti-proliferative activity, Cell Counting Kit-8, 72 hours (T47D); settings: Homo sapiens, T47D, 72 h, MELK-expressing, Cell Counting Kit-8 at 72 hours
Procedure, shortened: as §1

A549 cells = assay: Cell-based assay: anti-proliferative activity, Cell Counting Kit-8, 72 hours (A549); settings: Homo sapiens, A549, 72 h, MELK-expressing, Cell Counting Kit-8 at 72 hours
Procedure, shortened: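 A549 cells were seeded in 96-well plates and exposed to candidate inhibitors for 72 hours. Cell growth was then measured with Cell Counting Kit-8, and IC50 values were calculated from the resulting growth data.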

MELK, sequence (Q14680 whole entry, looked up): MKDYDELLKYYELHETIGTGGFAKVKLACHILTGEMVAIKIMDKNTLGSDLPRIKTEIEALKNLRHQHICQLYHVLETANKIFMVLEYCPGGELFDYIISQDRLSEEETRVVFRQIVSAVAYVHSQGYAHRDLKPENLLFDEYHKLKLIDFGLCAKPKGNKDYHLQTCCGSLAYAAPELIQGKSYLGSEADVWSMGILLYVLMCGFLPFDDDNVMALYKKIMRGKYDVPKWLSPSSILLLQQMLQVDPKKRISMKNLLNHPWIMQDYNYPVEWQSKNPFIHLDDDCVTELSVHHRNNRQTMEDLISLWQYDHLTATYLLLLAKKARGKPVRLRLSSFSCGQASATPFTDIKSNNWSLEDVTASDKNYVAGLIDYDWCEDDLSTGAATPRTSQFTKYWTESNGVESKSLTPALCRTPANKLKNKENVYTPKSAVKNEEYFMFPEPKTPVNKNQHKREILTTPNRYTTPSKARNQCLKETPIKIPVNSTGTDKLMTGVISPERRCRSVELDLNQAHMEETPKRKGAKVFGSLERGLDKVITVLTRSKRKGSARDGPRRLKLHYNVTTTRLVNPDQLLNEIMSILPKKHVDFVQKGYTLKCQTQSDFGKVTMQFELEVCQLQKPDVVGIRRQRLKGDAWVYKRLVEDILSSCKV

Row | SMILES | IC50 (BT-549 cells) [µM] | IC50 (MELK) [µM] | IC50 (HT-1197 cells) [µM] | IC50 (T47D cells) [µM] | IC50 (A549 cells) [µM]
1 | CCN(CC)[C@H]1CC[C@@H](Nc2c(C(=O)C3CC3)cnc3ccc(-c4cc(Cl)c(O)c(OC)c4)cc23)CC1 [Example 311, {6-(3-Chloro-4-hydroxy-5-methoxyphenyl)-4-[cis-4-(diethylamino)cyclohexylamino]quinolin-3-yl}(cyclopropyl)methanone] | 1.5 | 0.0032 | 7.6 | 0.51 | 0.21
2 | CC(C)C(=O)c1cnc2ccc(-c3cc(F)c(O)c(Cl)c3)cc2c1N[C@H]1CC[C@H](N)CC1 [Example 205, 1-{4-[trans-4-Aminocyclohexylamino]-6-(3-chloro-5-fluoro-4-hydroxyphenyl)quinolin-3-yl}-2-methylpropan-1-one] | 0.15 | 0.01 | 2.4 | 0.066 | 0.6
3 | COc1cc(-c2ccc3ncc(C(=O)CC(C)C)c(N[C@H]4CC[C@H](N(C)C)CC4)c3c2)cc(Cl)c1O [Example 348, 1-{6-(3-Chloro-4-hydroxy-5-methoxyphenyl)-4-[trans-4-(dimethylamino)cyclohexylamino]quinolin-3-yl}-3-methylbutan-1-one] | 0.93 | 0.0043 | 3 | 0.41 | 0.47
4 | COc1cc(-c2ccc3ncc(C(C)=O)c(N[C@H]4CC[C@H](N)CC4)c3c2)cc(Cl)c1O [Example 259, 1-{4-[trans-4-Aminocyclohexylamino]-6-(3-chloro-4-hydroxy-5-methoxyphenyl)quinolin-3-yl}ethanone] | 0.43 | 0.0024 | 2.5 | 0.057 | 0.099
5 | COc1cc(-c2ccc3ncc(S(C)(=O)=O)c(N4CCC(C(C)N(C)C)CC4)c3c2)cc(Cl)c1O (stereo not drawn) [Example 245, 2-Chloro-4-[4-{4-[1-(dimethylamino)ethyl]piperidin-1-yl}-3-(methylsulfonyl)quinolin-6-yl]-6-methoxyphenol] | 0.74 | 0.0016 | 2.3 | 0.35 | 0.25
6 | N[C@H]1CC[C@H](Nc2c(C(=O)C3CC3)cnc3ccc(-c4ccc5[nH]cnc5c4)cc23)CC1 [Example 116, {4-[trans-4-Aminocyclohexylamino]-6-(1H-benzo[d]imidazol-5-yl)quinolin-3-yl}(cyclopropyl)methanone] | 5.7 | 0.018 | 15 | 1.8 | 13
7 | N[C@H]1CC[C@H](Nc2c(C(=O)C3CC3)cnc3ccc(-c4cn[nH]c4)cc23)CC1 [Example 213, {4-[trans-4-Aminocyclohexylamino]-6-(1H-pyrazol-4-yl)quinolin-3-yl}(cyclopropyl)methanone] | 1.7 | 0.067 | 14 | 0.89 | 5.1
8 | CN(C)CC1CCN(c2c(C(=O)C3CC3)cnc3ccc(-c4cc(F)c(O)c(Cl)c4)cc23)CC1 [Example 347, [6-(3-Chloro-5-fluoro-4-hydroxyphenyl)-4-{4-[(dimethylamino)methyl]piperidin-1-yl}quinolin-3-yl](cyclopropyl)methanone] | 0.62 | 0.0024 | 1.8 | 0.42 | 0.48
9 | CC(=O)c1cnc2ccc(-c3cc(F)c(O)c(Cl)c3)cc2c1N1CCC(CN2CCCC2)CC1 [Example 336, 1-{6-(3-Chloro-5-fluoro-4-hydroxyphenyl)-4-[4-(pyrrolidin-1-ylmethyl)piperidin-1-yl]quinolin-3-yl}ethanone] | 0.85 | 0.0069 | 5 | 0.33 | 0.8
10 | CC(C)CC(=O)c1cnc2ccc(-c3cc(Cl)c(O)c(Cl)c3)cc2c1N[C@H]1CC[C@H](N)CC1 [Example 267, 1-{4-[trans-4-Aminocyclohexylamino]-6-(3,5-dichloro-4-hydroxyphenyl)quinolin-3-yl}-3-methylbutan-1-one dihydrochloride] | 0.72 | 0.0022 | 3 | 0.14 | 0.38
11 | COc1cc(-c2ccc3ncc(C(=O)C4CC4)c(NCC4CCNCC4)c3c2)cc(Cl)c1O [Example 243] | 1.8 | 0.0044 | 7.3 | 0.33 | 0.62
12 | N[C@H]1CC[C@@H](Nc2c(C(=O)C3CC3)cnc3ccc(-c4cc(F)c(O)c(F)c4)cc23)CC1 [Example 180, [4-(cis-4-Aminocyclohexylamino)-6-(3,5-difluoro-4-hydroxyphenyl)quinolin-3-yl](cyclopropyl)methanone] | 0.3 | 0.0026 | 4.5 | 0.17 | 0.9
13 | COc1cc(-c2ccc3ncc(C(=O)C4CC4)c(N[C@H]4CC[C@@H](N)CC4)c3c2)ccc1O [Example 165, {4-(cis-4-Aminocyclohexylamino)-6-(4-hydroxy-3-methoxyphenyl)quinolin-3-yl}(cyclopropyl)methanone] | 0.93 | 0.0019 | 2.1 | 0.57 | 0.45
14 | CC(=O)c1cnc2ccc(-c3cc(F)c(O)c(F)c3)cc2c1N[C@H]1CC[C@H](N)CC1 [Example 258, 1-{4-[trans-4-Aminocyclohexylamino]-6-(3,5-difluoro-4-hydroxyphenyl)quinolin-3-yl}ethanone] | 0.16 | 0.04 | 100 | 0.071 | 0.85
15 | CC(C)C(=O)c1cnc2ccc(-c3cc(F)c(O)c(Cl)c3)cc2c1N1CCC(CN2CCCC2)CC1 [Example 323, 1-{6-(3-Chloro-5-fluoro-4-hydroxyphenyl)-4-[4-(pyrrolidin-1-ylmethyl)piperidin-1-yl]quinolin-3-yl}-2-methylpropan-1-one] | 1.5 | 0.013 | 1.2 | 0.63 | 0.87
16 | COc1cc(-c2ccc3ncc(C(=O)C4CC4)c(N[C@H]4CC[C@H](N(C)C)CC4)c3c2)ccc1O [Example 266, Cyclopropyl(4-((trans)-4-(dimethylamino)cyclohexylamino)-6-(4-hydroxy-3-methoxyphenyl)quinolin-3-yl)methanone] | 0.94 | 0.0016 | 3 | 0.29 | 0.37
17 | N#Cc1ncc(-c2ccc3ncc(C(=O)C4CC4)c(N[C@H]4CC[C@H](N)CC4)c3c2)cn1 [Example 96, 5-{4-[trans-4-Aminocyclohexylamino]-3-(cyclopropanecarbonyl)quinolin-6-yl}pyrimidine-2-carbonitrile] | 0.93 | 0.0024 | 1.5 | 0.29 | 1.3
18 | COc1cc(-c2ccc3ncc(C(=O)C4CC4)c(N[C@H]4CC[C@H](N(C)C)CC4)c3c2)cc(Cl)c1O [Example 255, {6-(3-Chloro-4-hydroxy-5-methoxyphenyl)-4-[trans-4-(dimethylamino)cyclohexylamino]quinolin-3-yl}(cyclopropyl)methanone] | 0.64 | 0.0019 | 1.9 | 0.28 | 0.18
